# Patent US8372598B2 (priority 2010, dated 2013)
# Experiments:
# [1] = tested on: Co-5673; assay: microbe, parasite or virus in culture; type: cell-based, Clostridium
# [2] = tested on: Co-2164; assay: microbe, parasite or virus in culture; type: cell-based, Clostridium
# [3] = tested on: strain Co-9064; assay: MIC for NaCl; type: cell-based, Clostridium species; conditions: NaCl MIC determination
# [4] = tested on: strain Co-1533; assay: MIC for NaCl; type: cell-based, Clostridium species; conditions: NaCl MIC determination
# [5] = tested on: strain Co-6232; assay: MIC for NaCl; type: cell-based, Clostridium species; conditions: NaCl MIC determination
# [6] = tested on: mutants of Co-9064 selected as in Example 1; assay: Salt MIC / growth on NaCl plates, salt selection mutants as a group; type: cell-based, Clostridium
# [7] = tested on: mutant 11303; assay: Growth on agar plates with varying NaCl; type: cell-based, Clostridium; conditions: for CFU/ml: 48 hours
# [8] = tested on: mutant 11301; assay: Growth on agar plates with varying NaCl; type: cell-based, Clostridium; conditions: for CFU/ml: 48 hours
# [9] = tested on: mutant 10277; assay: Growth on agar plates with varying NaCl; type: cell-based, Clostridium; conditions: for CFU/ml: 48 hours
# [10] = tested on: mutant 10256; assay: Growth on agar plates with varying NaCl; type: cell-based, Clostridium; conditions: for CFU/ml: 48 hours
# [11] = tested on: parent Clostridium strain; assay: Growth on agar plates with varying NaCl; type: cell-based; conditions: for CFU/ml: 48 hours
# [12] = tested on: parent; conditions: OD600, parent
# [13] = tested on: mutant #1
# [14] = tested on: mutant #2
# [15] = tested on: mutants of Co-9064 selected as in Example 1; conditions: grown at increasing concentrations of butanol, FIGS. 2A and 2B
# [16] = Clostridium, 40 min, read-out: Survival (% of control)
compound,measurement,setting,value
"CCOS(C)(=O)=O [EMS, ethyl methane sulfonate]",Survival (count),"[1]; 30 μg/ml EMS, 40 minutes, 32° C., Co-5673",3.8 × 10^6
same,activity at 30 µg/mL,[1]; [16],4%
same,Survival (count),[2],5.8 × 10^6 (14%)
same,higher survival rate in comparison to Co-5673,[2],10%
same,activity at 30 µg/mL,[2]; [16],14%
"[Cl-].[Na+] [NaCl, sodium chloride]",highest concentration at which growth was observed,[3],300 mM
same,highest concentration at which growth was observed,[4],275 mM
same,highest concentration of salt at which growth was observed,[5],325 mM
same,increase of salt tolerance (salt MIC) compared to the parent strain,[6]; mutants versus parent,more than 100 mM
same,growth up to,"[6]; solid medium, four of the mutants",450 mM
same,CFU/ml,[7]; NaCl 350 mM,lawn
same,CFU/ml,[7]; NaCl 400 mM,lawn
same,CFU/ml,[7]; NaCl 425 mM,800 CFU/ml
same,CFU/ml,[7]; NaCl 450 mM,10 CFU/ml
same,CFU/ml,[7]; NaCl 475 mM,0 CFU/ml
same,grew on plates containing up to,"[7]; NaCl plates, mutant 11303",450 mM
same,CFU/ml,[8]; NaCl 350 mM,lawn
same,CFU/ml,[8]; NaCl 400 mM,lawn
same,CFU/ml,[8]; NaCl 425 mM,220 CFU/ml
same,CFU/ml,[8]; NaCl 450 mM,30 CFU/ml
same,CFU/ml,[8]; NaCl 475 mM,0 CFU/ml
same,grew on plates containing up to,"[8]; NaCl plates, mutant 11301",450 mM
same,CFU/ml,[9]; NaCl 350 mM,lawn
same,CFU/ml,[9]; NaCl 400 mM,lawn
same,CFU/ml,[9]; NaCl 425 mM,2930 CFU/ml
same,CFU/ml,[9]; NaCl 450 mM,150 CFU/ml
same,CFU/ml,[9]; NaCl 475 mM,0 CFU/ml
same,grew on plates containing up to,"[9]; NaCl plates, mutant 10277",450 mM
same,CFU/ml,[10]; NaCl 350 mM,lawn
same,CFU/ml,[10]; NaCl 400 mM,lawn
same,CFU/ml,[10]; NaCl 425 mM,480 CFU/ml
same,CFU/ml,[10]; NaCl 450 mM,20 CFU/ml
same,CFU/ml,[10]; NaCl 475 mM,0 CFU/ml
same,grew on plates containing up to,"[10]; NaCl plates, mutant 10256",450 mM
same,CFU/ml,[11]; NaCl 350 mM,6000 CFU/ml
same,CFU/ml,[11]; NaCl 400 mM,0 CFU/ml
same,CFU/ml,[11]; NaCl 425 mM,0 CFU/ml
same,CFU/ml,[11]; NaCl 450 mM,0 CFU/ml
same,CFU/ml,[11]; NaCl 475 mM,0 CFU/ml
same,grew on plates containing up to,"[11]; NaCl plates, parent strain",325 mM
same,no growth at this NaCl concentration and higher,"[11]; solid medium, parent",≥ 400 mM
n-butanol,% of added n-butanol (v/v) at 50% inhibition,[12],0.98 % (v/v)
same,% improvement,[13],20.89%
same,% of added n-butanol (v/v) at 50% inhibition,[13],1.18 % (v/v)
same,% improvement,[14],69.96%
same,% of added n-butanol (v/v) at 50% inhibition,[14],1.66 % (v/v)
same,butanol tolerance compared to the parent strain,[15],improved butanol tolerance
